Source: patent US9771378B2 (Denali Therapeutics, Inc., priority 2014, dated 2017)

Each compound was assayed on Aβ42 (human neuroglioma H4 cells expressing human wild type APP751) (assay: In vitro cell screening assay with sandwich ELISA quantification of Aβ42 peptide). Details: H4 cells stably expressing human wild type APP751; Pro293 chemically defined medium; compounds 0.003-10 μM; incubated overnight (16-18 h); supernatant Aβ42 by sandwich ELISA; normalized to DMSO and DAPT; read-out: Aβ42 H4 Prot Fre IC50.
Format: cell-based
Procedure, shortened: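 H4 neuroglioma cells stably expressing human wild-type APP751 were treated in Pro293 medium with compounds (0.003-10 μM, 0.33% DMSO) for 16-18 h at 37° C. Secreted Aβ42 measured by sandwich ELISA (C-terminal capture, 4G8-HRP detection, TMB, 450 nm). IC50 by variable-slope sigmoidal regression on percent of DMSO control.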

Compared with `COc1cc(Nc2ncc3c(n2)N(C)C(c2cc(F)cc(F)c2)CO3)cnc1-n1cnc(C(F)(F)F)c1` (single isomer, unassigned; (+)) [Example 206A], `COc1cc(Nc2ncc3c(n2)N(C)C(c2cc(F)cc(F)c2)CO3)cnc1-n1cnc(C#N)c1` (single isomer, unassigned; (+)) [Example 211A, (+)-1-(5-((7-(3,5-difluorophenyl)-8-methyl-7,8-dihydro-6H-pyrimido [5,4-b] [1, 4]oxazin-2-yl)amino)-3-methoxypyridin-2-yl)-1H-imidazole-4-carbonitrile] is 6.6-fold higher in IC50: 27 nM for the first, 179 nM for the second. The first is the more potent here.

Compared with `COc1ccc(C)c(C2COc3cnc(Nc4cnc(-n5cnc(C)c5)c(OC)c4)nc3N2C)c1` (single isomer, unassigned; (+)) [Example 207A], `COc1ccc(C2COc3cnc(Nc4cnc(-n5cnc(C)c5)c(OC)c4)nc3N2C)c(C)c1` (single isomer, unassigned; (+)) [Example 215A] is 1.6-fold higher in IC50: 10 nM for the first, 16 nM for the second. The first is the more potent here.

`COc1ccc(Cl)c(C2COc3cnc(Nc4cnc(-n5cnc(C)c5)c(OC)c4)nc3N2C)c1` (single isomer, unassigned; (+)) [Example 208A] and `COc1ccc(C2COc3cnc(Nc4cnc(-n5cnc(C)c5)c(OC)c4)nc3N2C)c(Cl)c1` (single isomer, unassigned; (+)) [Example 209A] are within 1.5-fold of each other in IC50: 20 nM for the first, 21 nM for the second.

`Cc1cn(-c2ncc(Nc3ncc4c(n3)N(C)C(c3cc(F)cc(F)c3)CO4)cc2Cl)cn1` (single isomer, unassigned; (+)) [Example 210A] and `COc1cc(Nc2ncc3c(n2)N(C)C(c2cc(F)cc(F)c2)CO3)ncc1-n1cnc(C)c1` (single isomer, unassigned; (+)) [Example 220B] are within 1.5-fold of each other in IC50: 41 nM for the first, 44 nM for the second.

First: COc1cc(Nc2ncc3c(n2)N(C)C(C2CC(F)(F)C2)CO3)ccc1-n1cnc(C)c1 (single isomer, unassigned; (+)) [Example 212B]
Second: COc1cc(Nc2ncc3c(n2)N(C)C(C2CCC(F)(F)CC2)CO3)ccc1-n1cnc(C)c1 (single isomer, unassigned; (+)) [Example 216B]
The IC50 of the first is 1.8-fold higher: 61 nM for the first, 33 nM for the second.

`Cc1cn(-c2ccc(Nc3ncc4c(n3)N(C)C(C)CO4)cc2OC(F)(F)F)cn1` (single isomer, unassigned; (+)) [Example 213B] and `Cc1cn(-c2ccc(Nc3ncc4c(n3)N(C)C(C)CO4)cc2C(F)F)cn1` (single isomer, unassigned; (+)) [Example 214A] cannot be ordered by IC50: greater than 3000 nM for the first, greater than 3000 nM for the second.

`COc1cc(Nc2ncc3c(n2)N(C)C(C2CC(F)(F)C2)CO3)cnc1-n1cnc(C)c1` (single isomer, unassigned; (+)) [Example 219A] and `COc1cc(Nc2ncc3c(n2)N(C)C(C2CCC(F)(F)CC2)CO3)cnc1-n1cnc(C)c1` (single isomer, unassigned; (+)) [Example 221A] are within 1.5-fold of each other in IC50: 25 nM for the first, 24 nM for the second.

First: Cc1cn(-c2ccc(Nc3ncc4c(n3)N(C)C(c3cc(F)cc(F)c3)CO4)cc2C(F)F)cn1 (single isomer, unassigned; (+)) [Example 222A]
Second: Cc1cn(-c2ccc(Nc3ncc4c(n3)N(C)C(c3cc(F)cc(F)c3)CO4)cc2OC(F)(F)F)cn1 (single isomer, unassigned; (+)) [Example 223B]
The IC50 of the first is lower: 361 nM for the first, greater than 3000 nM for the second.

`CN1c2nc(Nc3ccc(C#N)cc3)ncc2OCC1C(F)(F)F` (single isomer, unassigned; (+)) [Example 226A, (+)-4-((8-methyl-7-(trifluoromethyl)-7,8-dihydro-6H-pyrimido [5,4-b] [1, 4]oxazin-2-yl)amino) benzonitrile] and `COc1cc(Nc2ncc3c(n2)N(C)C(C(F)(F)F)CO3)ccc1C#N` (single isomer, unassigned; (+)) [Example 230A, (+)-2-methoxy-4-((8-methyl-7-(trifluoromethyl)-7,8-dihydro-6H-pyrimido [5,4-b] [1, 4]oxazin-2-yl)amino) benzonitrile] cannot be ordered by IC50: greater than 3000 nM for the first, greater than 3000 nM for the second.

Compared with `COc1cc(Nc2ncc3c(n2)N(C)C(C(F)(F)F)CO3)ccc1-n1cnc(Cl)c1` (single isomer, unassigned; (+)) [Example 228A], `COc1cc(Nc2ncc3c(n2)N(C)C(C(F)(F)F)CO3)ccc1-n1cnc(C)n1` (single isomer, unassigned; (+)) [Example 242B] is 5.6-fold higher in IC50: 331 nM for the first, 1860 nM for the second. The first is the more potent here.

First: Cc1cn(-c2ncc(Nc3ncc4c(n3)N(C)C(C(F)(F)F)CO4)cc2Cl)cn1 (single isomer, unassigned; (+)) [Example 229B]
Second: Cc1cn(-c2ccc(Nc3ncc4c(n3)N(C)C(C(F)(F)F)CO4)cc2C#N)cn1 (single isomer, unassigned; (+)) [Example 232A, (+)-2-(4-methyl-1H-imidazol-1-yl)-5-((8-methyl-7-(trifluoromethyl)-7,8-dihydro-6H-pyrimido [5,4-b] [1, 4]oxazin-2-yl)amino) benzonitrile]
The IC50 of the first is 10-fold higher: 2850 nM for the first, 280 nM for the second.

Going from `COc1cc(Nc2ncc3c(n2)N(C)C(C2CCC(F)(F)CC2)CO3)cnc1-c1cnn(C)c1` (single isomer, unassigned; (+)) [Example 231A] to `COc1cc(Nc2ncc3c(n2)N(C)C(C2COC2)CO3)cnc1-n1cnc(C)c1` (single isomer, unassigned; (+)) [Example 243A], the IC50 rises from 342 nM to 601 nM (1.8-fold).

Going from `CN1c2nc(Nc3ccc(C#N)cc3)ncc2OCC1c1cc(F)cc(F)c1` (single isomer, unassigned; (+)) [Example 233A, (+)-4-((7-(3,5-difluorophenyl)-8-methyl-7,8-dihydro-6H-pyrimido [5,4-b] [1, 4]oxazin-2-yl)amino) benzonitrile] to `COc1cc(Nc2ncc3c(n2)N(C)C(c2cc(F)cc(F)c2)CO3)ccc1C#N` (single isomer, unassigned; (+)) [Example 237B, (+)-4-((7-(3,5-difluorophenyl)-8-methyl-7,8-dihydro-6H-pyrimido [5,4-b] [1, 4]oxazin-2-yl)amino)-2-methoxybenzonitrile], the IC50 falls from 888 nM to 226 nM (3.9-fold). The second is the more potent here.

First: COc1cc(Nc2ncc3c(n2)N(C)C(C(F)(F)F)CO3)ncc1-n1cnc(C)c1 (single isomer, unassigned; (+)) [Example 236A]
Second: COc1cc(Nc2ncc3c(n2)N(C)C(CC(F)(F)F)CO3)cnc1-n1cnc(C)c1 (single isomer, unassigned; (+)) [Example 238B]
The IC50 of the first is higher: greater than 3000 nM for the first, 66 nM for the second. The second is the more potent here.

`COc1cc(Nc2ncc3c(n2)N(C)C(C2CCS(=O)(=O)CC2)CO3)ccc1-n1cnc(C)c1` (single isomer, unassigned; (+)) [Example 239B, (+)-4-(2-((3-methoxy-4-(4-methyl-1H-imidazol-1-yl)phenyl)amino)-8-methyl-7,8-dihydro-6H-pyrimido [5,4-b] [1, 4]oxazin-7-yl) tetrahydro-2H-thiopyran 1,1-dioxide] and `COc1cc(Nc2ncc3c(n2)N(C)C(C2COC2)CO3)ccc1-n1cnc(C)c1` (single isomer, unassigned; (+)) [Example 241B] are within 1.5-fold of each other in IC50: 380 nM for the first, 342 nM for the second.

`COc1cc(Nc2ncc3c(n2)N(C)C(c2cc(F)cc(F)c2)CO3)ccc1-n1cnc(C)n1` (single isomer, unassigned; (+)) [Example 244A] and `COc1cc(Nc2ncc3c(n2)N(C)C(C2(C(F)(F)F)CC2)CO3)ccc1-n1cnc(C)c1` (single isomer, unassigned; (+)) [Example 245B] are within 1.5-fold of each other in IC50: 23 nM for the first, 22 nM for the second.

For `COc1cc(Nc2ncc3c(n2)N(C)C(C2(C(F)(F)F)CC2)CO3)cnc1-n1cnc(C)c1` (single isomer, unassigned; (+)) [Example 247B], the IC50 was 5 nM.
